Results from patent EP4810052A2, “HCRHR2 SELECTIVE POLYPEPTIDES” (Gubra A/S, priority 2023, dated 2026).
Where two headings read alike, the source gives them in different places. Starred links: 1 amine or outer side, 2 acyl side, 3 side chain; linkers in the order of their positions; H or OH if unused. Non-standard residues stand in square brackets, D forms with d. Residues, ends and D or L forms follow the SMILES beside them. Groups on a side chain read outwards from the residue. *: point of attachment. C20 diacid = O=C(O)CCCCCCCCCCCCCCCCCCC(=O)*; γGlu = O=C(O)[C@H](CCC(=O)[*:2])N[*:1]; NMeI = CC[C@H](C)[C@H](NC)C(=O)O; Nle = CCCC[C@H](N)C(=O)O; AEEA = NCCOCCOCC(=O)O; Aib = CC(C)(N)C(=O)O

What was measured:
hCRHR2 = target: T1, hCRHR2 (Homo sapiens, UniProt Q13324); assay: HTRF cAMP assay, determination of hCRHR2 potency (peptide libraries 5 conc., purified peptides 11 conc.); type: cell-based
T1 sequence (Q13324 1-411): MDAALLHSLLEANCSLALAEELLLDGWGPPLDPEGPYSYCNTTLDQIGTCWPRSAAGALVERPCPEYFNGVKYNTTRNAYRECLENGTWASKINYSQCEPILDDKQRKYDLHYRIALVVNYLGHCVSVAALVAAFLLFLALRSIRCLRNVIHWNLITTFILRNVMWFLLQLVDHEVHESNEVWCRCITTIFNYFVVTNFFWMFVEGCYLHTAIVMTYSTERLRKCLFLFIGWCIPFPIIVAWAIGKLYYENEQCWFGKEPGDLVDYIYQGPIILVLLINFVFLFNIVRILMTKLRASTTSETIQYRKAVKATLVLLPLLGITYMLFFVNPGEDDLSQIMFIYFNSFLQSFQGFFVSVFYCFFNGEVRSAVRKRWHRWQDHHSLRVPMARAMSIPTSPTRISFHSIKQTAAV
Procedure, shortened: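 Potency was read as cAMP accumulation in a stable CHO-K1 line expressing human CRHR2, used in suspension right after thawing. Detection relied on energy transfer from antibody-bound cryptate to d2-cAMP.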

hCRHR1 = target: T2, hCRHR1 (Homo sapiens, UniProt P34998); assay: HTRF cAMP assay, determination of hCRHR1 potency (peptide libraries 5 conc., purified peptides 11 conc.); type: cell-based
T2 sequence (P34998 24-415): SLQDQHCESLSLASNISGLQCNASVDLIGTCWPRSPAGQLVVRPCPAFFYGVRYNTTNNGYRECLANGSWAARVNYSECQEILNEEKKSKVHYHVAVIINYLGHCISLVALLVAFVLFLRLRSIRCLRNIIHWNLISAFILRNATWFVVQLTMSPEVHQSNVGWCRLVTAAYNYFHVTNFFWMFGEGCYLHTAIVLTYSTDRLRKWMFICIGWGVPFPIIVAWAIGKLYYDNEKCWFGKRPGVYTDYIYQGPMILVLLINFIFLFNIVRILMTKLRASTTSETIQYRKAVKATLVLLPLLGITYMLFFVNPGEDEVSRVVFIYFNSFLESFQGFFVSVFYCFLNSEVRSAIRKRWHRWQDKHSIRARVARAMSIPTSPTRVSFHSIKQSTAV
Procedure, shortened: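 CHO-K1 cells stably expressing human CRHR1, thawed from frozen stocks just before use, were stimulated in suspension with agonist peptides. cAMP was measured by HTRF competitive immunoassay (cryptate anti-cAMP antibody vs d2-cAMP).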

[1] = Table 3, matched molecular pairs X^38 L vs Nle, peptide library of Example 4, read-out: hCRHR2 pEC50 (converted)
[2] = Table 3, matched molecular pairs X^38 L vs Nle, peptide library of Example 4, read-out: hCRHR1 pEC50 (converted)

EC50 (hCRHR2; [1]) [nM] | EC50 (hCRHR1; [2]) [nM] | Compound | also measured
0.501 | 39800 | CC[C@H](C)[C@H](N)C(=O)N[C@H](C(=O)N[C@@H](CC(C)C)C(=O)N[C@@H](CO)C(=O)N[C@@H](CC(C)C)C(=O)N[C@@H](CC(=O)O)C(=O)N[C@H](C(=O)N1CCC[C@H]1C(=O)N[C@H](C(=O)NCC(=O)N[C@@H](CC(C)C)C(=O)N[C@@H](CC(C)C)C(=O)N[C@@H](CCC(N)=O)C(=O)N[C@H](C(=O)N[C@@H](CC(C)C)C(=O)N[C@@H](CC(C)C)C(=O)N[C@@H](CCC(=O)O)C(=O)N[C@@H](CCC(N)=O)C(=O)N[C@@H](C)C(=O)N[C@@H](CCCNC(=N)N)C(=O)N[C@@H](C)C(=O)N[C@@H](CCC(=O)O)C(=O)N[C@@H](C)C(=O)N[C@@H](C)C(=O)N[C@@H](CCCNC(=N)N)C(=O)N[C@@H](CCC(=O)O)C(=O)N[C@@H](CCC(N)=O)C(=O)N[C@@H](C)C(=O)N[C@@H](CCCCNC(=O)COCCOCCNC(=O)COCCOCCNC(=O)CC[C@H](NC(=O)CC[C@H](NC(=O)CCCCCCCCCCCCCCCCCCC(=O)O)C(=O)O)C(=O)O)C(=O)N[C@H](C(=O)N[C@@H](CC(N)=O)C(=O)N[C@@H](C)C(=O)N[C@@H](CCC(=O)O)C(=O)N[C@H](C(=O)N[C@@H](CC(C)C)C(=O)N[C@@H](C)C(=O)N[C@@H](CCC(=O)O)C(=O)N[C@H](C(N)=O)[C@@H](C)CC)[C@@H](C)CC)[C@@H](C)O)[C@@H](C)CC)[C@@H](C)CC)C(C)C)C(C)C [SEQ ID NO: 23] (H-IVLSLDVPIGLLQILLEQARAEAAREQAK([AEEA-AEEA-γGlu-γGlu-C20 diacid])TNAEILAEI-NH2) | –
0.794 | 63100 | CC[C@H](C)[C@H](N)C(=O)N[C@H](C(=O)N[C@@H](CC(C)C)C(=O)N[C@@H](CO)C(=O)N[C@@H](CC(C)C)C(=O)N[C@@H](CC(=O)O)C(=O)N[C@H](C(=O)N1CCC[C@H]1C(=O)N[C@H](C(=O)NCC(=O)N[C@@H](CC(C)C)C(=O)N[C@@H](CC(C)C)C(=O)N[C@@H](CCC(N)=O)C(=O)N[C@H](C(=O)N[C@@H](CC(C)C)C(=O)N[C@@H](CC(C)C)C(=O)N[C@@H](CCC(=O)O)C(=O)N[C@@H](CCC(N)=O)C(=O)N[C@@H](C)C(=O)N[C@@H](CCCNC(=N)N)C(=O)N[C@@H](C)C(=O)N[C@@H](CCC(=O)O)C(=O)N[C@@H](CO)C(=O)N[C@@H](C)C(=O)N[C@@H](CCCNC(=N)N)C(=O)N[C@@H](CCC(=O)O)C(=O)N[C@@H](CCCNC(=N)N)C(=O)N[C@@H](C)C(=O)N[C@@H](CCCCNC(=O)COCCOCCNC(=O)COCCOCCNC(=O)CC[C@H](NC(=O)CC[C@H](NC(=O)CCCCCCCCCCCCCCCCCCC(=O)O)C(=O)O)C(=O)O)C(=O)N[C@H](C(=O)N[C@@H](CC(N)=O)C(=O)N[C@@H](C)C(=O)N[C@@H](CCC(=O)O)C(=O)N[C@H](C(=O)N[C@@H](CC(C)C)C(=O)N[C@@H](C)C(=O)N[C@@H](CCC(=O)O)C(=O)N[C@H](C(N)=O)[C@@H](C)CC)[C@@H](C)CC)[C@@H](C)O)[C@@H](C)CC)[C@@H](C)CC)C(C)C)C(C)C [SEQ ID NO: 21] (H-IVLSLDVPIGLLQILLEQARAESARERAK([AEEA-AEEA-γGlu-γGlu-C20 diacid])TNAEILAEI-NH2) | –
– | – | CCCC[C@H](NC(=O)[C@@H](NC(=O)[C@H](CCC(=O)O)NC(=O)C(C)(C)NC(=O)[C@H](CC(N)=O)NC(=O)[C@@H](NC(=O)[C@H](CCCCNC(=O)COCCOCCNC(=O)COCCOCCNC(=O)CC[C@H](NC(=O)CC[C@H](NC(=O)CCCCCCCCCCCCCCCCCCC(=O)O)C(=O)O)C(=O)O)NC(=O)[C@H](C)NC(=O)[C@H](CCC(N)=O)NC(=O)[C@H](CCC(=O)O)NC(=O)[C@H](CCCNC(=N)N)NC(=O)[C@H](C)NC(=O)[C@H](C)NC(=O)[C@H](CCCNC(=N)N)NC(=O)[C@H](C)NC(=O)[C@H](CCCNC(=N)N)NC(=O)[C@H](C)NC(=O)[C@H](CCC(N)=O)NC(=O)CNC(=O)[C@H](CC(C)C)NC(=O)[C@H](CC(C)C)NC(=O)[C@@H](NC(=O)[C@H](CCC(N)=O)NC(=O)[C@H](CC(C)C)NC(=O)[C@H](CC(C)C)NC(=O)CNC(=O)[C@@H](NC(=O)[C@@H]1CCCN1C(=O)[C@@H](NC(=O)[C@H](CC(=O)O)NC(=O)[C@H](CC(C)C)NC(=O)[C@H](CO)NC(=O)[C@H](CC(C)C)NC(=O)[C@@H](NC(=O)[C@@H](NC)[C@@H](C)CC)C(C)C)C(C)C)[C@@H](C)CC)[C@@H](C)CC)[C@@H](C)O)[C@@H](C)CC)C(=O)N[C@@H](C)C(=O)N[C@@H](CCC(=O)O)C(=O)N[C@H](C(N)=O)C(C)C [compound 204] (H-[NMeI]VLSLDVPIGLLQILLGQARARAAREQAK([AEEA-AEEA-γGlu-γGlu-C20 diacid])TN[Aib]EI[Nle]AEV-NH2) | EC50 (hCRHR2; Table 4, library peptides having X^38 = Nle, read-out: hCRHR2 pEC50 (converted)): 0.0251 nM; EC50 (hCRHR1; Table 4, library peptides having X^38 = Nle, read-out: hCRHR1 pEC50 (converted)): 1000 nM
– | – | CC[C@H](C)[C@H](N)C(=O)N[C@H](C(=O)N[C@@H](CC(C)C)C(=O)N[C@@H](CO)C(=O)N[C@@H](CC(C)C)C(=O)N[C@@H](CC(=O)O)C(=O)N[C@H](C(=O)N1CCC[C@H]1C(=O)N[C@H](C(=O)NCC(=O)N[C@@H](CC(C)C)C(=O)N[C@@H](CC(C)C)C(=O)N[C@@H](CCC(N)=O)C(=O)N[C@H](C(=O)N[C@@H](CC(C)C)C(=O)N[C@@H](CC(C)C)C(=O)N[C@@H](CCC(=O)O)C(=O)N[C@@H](CCC(N)=O)C(=O)N[C@@H](C)C(=O)N[C@@H](CCCNC(=N)N)C(=O)N[C@@H](C)C(=O)N[C@@H](CCCNC(=N)N)C(=O)N[C@@H](C)C(=O)N[C@@H](CC(C)C)C(=O)N[C@@H](CCCNC(=N)N)C(=O)N[C@@H](CCC(=O)O)C(=O)N[C@@H](CCC(=O)O)C(=O)N[C@@H](C)C(=O)N[C@@H](CCCCNC(=O)COCCOCCNC(=O)COCCOCCNC(=O)CC[C@H](NC(=O)CC[C@H](NC(=O)CCCCCCCCCCCCCCCCCCC(=O)O)C(=O)O)C(=O)O)C(=O)N[C@H](C(=O)N[C@@H](CC(N)=O)C(=O)N[C@@H](C)C(=O)N[C@@H](CCC(=O)O)C(=O)N[C@H](C(=O)N[C@@H](CC(C)C)C(=O)N[C@@H](C)C(=O)N[C@@H](CCC(=O)O)C(=O)N[C@H](C(N)=O)C(C)C)[C@@H](C)CC)[C@@H](C)O)[C@@H](C)CC)[C@@H](C)CC)C(C)C)C(C)C [compound 50] (H-IVLSLDVPIGLLQILLEQARARALREEAK([AEEA-AEEA-γGlu-γGlu-C20 diacid])TNAEILAEV-NH2) | EC50 (hCRHR2; library peptides, matched molecular pairs L vs Nle in position X^38, read-out: Potency hCRHR2 pEC50 (converted)): 2 nM; EC50 (hCRHR1; library peptides, matched molecular pairs L vs Nle in position X^38, read-out: Potency hCRHR1 pEC50 (converted)): 158000 nM
0.126 | 1580 | CCCC[C@H](NC(=O)[C@@H](NC(=O)[C@H](CCC(=O)O)NC(=O)[C@H](C)NC(=O)[C@H](CC(N)=O)NC(=O)[C@@H](NC(=O)[C@H](CCCCNC(=O)COCCOCCNC(=O)COCCOCCNC(=O)CC[C@H](NC(=O)CC[C@H](NC(=O)CCCCCCCCCCCCCCCCCCC(=O)O)C(=O)O)C(=O)O)NC(=O)[C@H](C)NC(=O)[C@H](CCC(N)=O)NC(=O)[C@H](CCC(=O)O)NC(=O)[C@H](CCCNC(=N)N)NC(=O)[C@H](C)NC(=O)[C@H](CCC(N)=O)NC(=O)[C@H](CCCNC(=N)N)NC(=O)[C@H](C)NC(=O)[C@H](CCCNC(=N)N)NC(=O)[C@H](C)NC(=O)[C@H](CCC(N)=O)NC(=O)[C@H](CCC(=O)O)NC(=O)[C@H](CC(C)C)NC(=O)[C@H](CC(C)C)NC(=O)[C@@H](NC(=O)[C@H](CCC(N)=O)NC(=O)[C@H](CC(C)C)NC(=O)[C@H](CC(C)C)NC(=O)CNC(=O)[C@@H](NC(=O)[C@@H]1CCCN1C(=O)[C@@H](NC(=O)[C@H](CC(=O)O)NC(=O)[C@H](CC(C)C)NC(=O)[C@H](CO)NC(=O)[C@H](CC(C)C)NC(=O)[C@@H](NC(=O)[C@@H](N)[C@@H](C)CC)C(C)C)C(C)C)[C@@H](C)CC)[C@@H](C)CC)[C@@H](C)O)[C@@H](C)CC)C(=O)N[C@@H](C)C(=O)N[C@@H](CCC(=O)O)C(=O)N[C@H](C(N)=O)[C@@H](C)CC [SEQ ID NO: 30] (H-IVLSLDVPIGLLQILLEQARARQAREQAK([AEEA-AEEA-γGlu-γGlu-C20 diacid])TNAEI[Nle]AEI-NH2) | –
